Counter-ions that a name gives are not always drawn.
Biological target: T1, substance P receptor (Homo sapiens, UniProt P25103)
T1 construct: endogenous in cells; host or cells: IM-9 human lymphoblast cells (membrane preparation)
Assay: Radioligand receptor binding inhibiting activity (binding inhibitory activity using receptor from human lymphoblast cell (IM-9))
Conditions: radioligand [125I]-labeled substance P (125I-BHSP), 25° C., 30 minutes
Description: Radioligand receptor binding inhibiting activity (binding inhibitory activity using receptor from human lymphoblast cell (IM-9))
A modified method by M. A. Cascieri et al (Molecular Pharmacology, Vol. 42, p. 458 (1992)) was employed. The receptor was prepared from a human lymphoblast cell (IM-9). After inoculation of IM-9 cells (2×10^5 cells/ml), the cells were cultured for 3 days (1L), and then the culture was centrifuged at 500×G for 5 minutes to obtain a cell pellet. The resultant pellet was washed once with a phosphate buffer (FLOW LABORATORIES, CAT. No. 28-103-05), fractured in 30 ml of a 50 mM Tris-HCl buffer (pH 7.4) containing 120 mM sodium chloride, 5 mM potassium chloride, 2 μg/ml chymostatin, 40 μg/ml bacitracin, 5 μg/ml phosphoramidone, 0.5 mM phenylmethylsulfonyl fluoride and 1 mM ethylenediamine tetraacetic acid using a polytron homogenizer (Kinematika, Germany), and centrifuged at 40,000×G for 20 minutes. The separated material was washed twice with 30 ml of the buffer solution described above and stored frozen as a receptor standard preparation (−80° C.)
This preparation was suspended in a reaction buffer [50 mM Tris-HCl buffer (pH 7.4), 0.02% bovine serum albumin, 1 mM phenylmethylsulfonyl fluoride, 2 μg/ml of chymostatin, 40 μg/ml bacitracin, 3 mM manganese chloride] at a protein concentration of 0.5 mg/ml and a 100 μl portion was used for the reaction. The sample, 125I-BHSP (0.46 KBq) was also added and the mixture was reacted in a 0.2 ml reaction buffer at 25° C. for 30 minutes. A non-specific binding level was measured by adding substance P at 2×10^−6 M.
After the reaction, a Cell Harvester [290PHD manufactured by Cambridge Technology, Inc, USA] was used to conduct a rapid filtration over a glass filter [GF/B manufactured by Whatman, USA] whereby terminating the reaction, followed by washing three times with 250 μl of a 50 mM Tris-HCl buffer solution (pH 7.4) containing 0.02% bovine serum albumin. Then, the radioactivity remaining on the filter was counted with a gamma counter. The filter was used after immersing in a 0.1% polyethylene imine over a whole day and night followed by drying in air.
The radioligand means [^125I]-labeled substance P.

T1 sequence (P25103 whole entry): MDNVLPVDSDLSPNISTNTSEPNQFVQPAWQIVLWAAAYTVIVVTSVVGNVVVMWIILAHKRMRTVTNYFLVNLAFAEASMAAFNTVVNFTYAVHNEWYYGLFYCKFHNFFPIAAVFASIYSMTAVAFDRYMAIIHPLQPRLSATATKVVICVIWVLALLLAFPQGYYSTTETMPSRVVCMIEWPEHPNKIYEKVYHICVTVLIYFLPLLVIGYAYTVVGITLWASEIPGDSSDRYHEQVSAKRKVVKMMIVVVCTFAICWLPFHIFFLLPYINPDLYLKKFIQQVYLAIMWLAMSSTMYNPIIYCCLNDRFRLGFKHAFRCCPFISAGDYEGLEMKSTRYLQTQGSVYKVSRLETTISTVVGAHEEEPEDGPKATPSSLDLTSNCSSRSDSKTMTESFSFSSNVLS

IC50 [nM] | SMILES
0.85 | CCOc1ccccc1CN1CCC(=O)C(C(c2ccc(F)cc2)c2ccc(F)cc2)C1 (centres unmarked) [Example 98, 3-[Bis(4-fluorophenyl)methyl]-1-(2-ethoxybenzyl)-4-piperidinone]
0.42 | COc1ccc(C(C)C)cc1CN1CCC(=O)C(C(c2ccccc2)c2ccccc2)C1 (centres unmarked) [Example 175, 3-Benzhydryl-1-(5-isopropyl-2-methoxybenzyl)-4-piperidinone]
0.44 | CCOc1ccccc1CN1CCC(=O)C(C(c2ccccc2)c2ccccc2)C1 (centres unmarked) [Example 99, 3-Benzhydryl-1-(2-ethoxybenzyl)-4-piperidinone]
0.29 | CCOc1ccc([N+](=O)[O-])cc1CN1CCC(=O)C(C(c2ccccc2)c2ccccc2)C1 (centres unmarked) [Example 185, 3-Benzhydryl-1-(2-ethoxy-5-nitrobenzyl)-4-piperidinone]
0.62 | COc1ccc(Br)cc1CN1CCC(=O)C(C(c2ccc(F)cc2)c2ccc(F)cc2)C1 (single isomer, unassigned; (-)) [Example 163, (−)-3-[Bis(4-fluorophenyl)methyl]-1-(5-bromo-2-methoxybenzyl)-4-piperidinone]
0.34 | COc1ccc(OC(F)(F)F)cc1CN1CCC(=O)C(C(c2ccccc2)c2ccccc2)C1 (centres unmarked) [Example 168, 3-Benzhydryl-1-[2-methoxy-5-(trifluoromethoxy)benzyl]-4-piperidinone]
0.26 | COc1ccc(NS(C)(=O)=O)cc1CN1CCC(=O)C(C(c2ccccc2)c2ccccc2)C1 (centres unmarked) [Example 183, N-[3-[(3-Benzhydryl-4-oxo-1-piperidinyl)methyl]-4-methoxyphenyl]methanesulfonamide]

Test system: not given
Assay: not given
Conditions: not given

melting point | SMILES
174 to 175 °C | COc1ccc(OC(F)(F)F)cc1CN1CCC(=O)C(C(c2ccccc2)c2ccccc2)C1 (centres unmarked) (as salt: hydrochloride) [Example 168, 3-Benzhydryl-1-[2-methoxy-5-(trifluoromethoxy)benzyl]-4-piperidinone]
177.5 to 179 °C | O=C1CN(Cc2ccccc2)CCC1C(c1ccc(F)cc1)c1ccc(F)cc1 (centres unmarked) (as salt: hydrochloride) [Example 195, 1-Benzyl-4-[bis(4-fluorophenyl)methyl]-3-piperidinone]
119 to 120 °C | COc1ccc([N+](=O)[O-])cc1CN1CCC(=O)C(C(c2ccccc2)c2ccccc2)C1 (centres unmarked) [Example 176, 3-Benzhydryl-1-(2-methoxy-5-nitrobenzyl)-4-piperidinone]
196 to 198 °C (dec.) | O=C1CNCCC1C1c2ccccc2CCc2ccccc21 (centres unmarked) (as salt: hydrochloride) [Example 198, 4-(10,11-Dihydro-5H-dibenzo[a,d][7]annulen-5-yl)-3-piperidinone]
190 to 191 °C | O=C1CCN(Cc2ccccc2)CC1C(c1ccc(Cl)cc1)c1ccccc1Cl (centres unmarked) (as salt: hydrochloride) [Example 158, 1-Benzyl-3-[(2-chlorophenyl)(4-chlorophenyl)methyl]-4-piperidinone]
204 to 205 °C | O=C1CCNCC1C(c1ccccc1)c1ccccc1F (centres unmarked) (as salt: hydrochloride)
132 to 135 °C | COc1ccc(N(S(C)(=O)=O)S(C)(=O)=O)cc1CN1CCC(=O)C(C(c2ccccc2)c2ccccc2)C1 (centres unmarked) [Example 178, N-[3-[(3-Benzhydryl-4-oxo-1-piperidinyl)methyl]-4-methoxyphenyl]-N-(methylsulfonyl)methanesulfonamide]
136 to 138 °C | COc1c(CN2CCC(=O)C(C(c3ccccc3)c3ccccc3)C2)cc(C(C)(C)C)cc1C(C)(C)C (centres unmarked) [Example 161, 3-Benzhydryl-1-(3,5-di-tert-butyl-2-methoxybenzyl)-4-piperidinone]
125 to 126 °C | COc1ccc2ccccc2c1CN1CCC(=O)C(C(c2ccc(F)cc2)c2ccc(F)cc2)C1 (centres unmarked) [Example 148, 3-[Bis(4-fluorophenyl)methyl]-1-[(2-methoxy-1-naphthyl)methyl]-4-piperidinone]
214 to 215 °C | O=C1CCN(Cc2ccccc2)CC1C(c1ccccc1)c1ccccc1F (centres unmarked) (as salt: hydrochloride) [Example 157, 1-Benzyl-3-[(2-fluorophenyl)(phenyl)methyl]-4-piperidinone]
177 to 178 °C | O=C1CCN(Cc2cc([N+](=O)[O-])ccc2O)CC1C(c1ccccc1)c1ccccc1 (centres unmarked) [Example 184, 3-Benzhydryl-1-(2-hydroxy-5-nitrobenzyl)-4-piperidinone]
137 to 138 °C | CCOc1cccc(OC)c1CN1CCC(=O)C(C(c2ccccc2)c2ccccc2)C1 (centres unmarked) [Example 170, 3-Benzhydryl-1-(2-ethoxy-6-methoxybenzyl)-4-piperidinone]
132 to 135 °C | COc1ccc(NS(C)(=O)=O)cc1CN1CCC(=O)C(C(c2ccccc2)c2ccccc2)C1 (centres unmarked) [Example 183, N-[3-[(3-Benzhydryl-4-oxo-1-piperidinyl)methyl]-4-methoxyphenyl]methanesulfonamide]
